# Marks after values point to notes of the source that are not given here.
# Experiments:
# [1] = system: hair follicles / hair growth in depilated C57BL/6 mice; assay: Hair growth in C57BL/6 mice after rosin/paraffin depilation; assay type: in vivo; settings: for Time from hair growth to the same length as the hair in the non-experimental area / Time to grow new hair / Time to match the length of hair in the non-experimental area: back hair removal area of mice; for Black skin duration / Skin black-turning time / Skin grayish-black-turning time: hair removal area on the back of mice; for Skin black-turning time / Skin grayish-black-turning time: after hair removal
# Procedure: SPF grade C57BL/6 mice were selected and numbered according to their weight. They were randomly divided into compound group 1 (skin applied with 2% R-IMPP solution), compound group 2 (skin applied with 2% PF 06446846 solution), and compound group 3 (skin applied with 2% SBC-115076 solution), compound group 4 (skin applied with 2% SBC-110736 solution), monoclonal antibody group 1 (PCSK9subcutaneous injection monoclonal antibody ab81041, 5 mg/kg·d), monoclonal antibody group 2 (Subcutaneous injection of Evolocumab, 5 mg/kg·d), monoclonal antibody group 3 (subcutaneous injection of Alirocumab, 5 mg/kg·d), PCSK9 RNA interference group-1 (skin applied with 2% PCSK9 small interfering RNA-1 solution), PCSK9 RNA interference Group-2 (skin applied with 2% PCSK9 small interfering RNA-2 solution), PCSK9 RNA interference group-3 (skin applied with 2% PCSK9 small interfering RNA-3 solution), polypeptide group (subcutaneous injection of Abcam company ab32727, 3 mg/kg·d), positive control group (skin applied with 2% minoxidil solution), negative control group (skin applied with 60% ethanol), and model control group (skin applied with 60% ethanol), 10 mice in each group, half male and half female. After the mice were anesthetized with ether, they were coated on the back with a mixture of rosin and paraffin (1:1) after hot melting, and then peeled off after it solidified and hardened. The back of the mouse was cleaned to be hairless and without injuries. The depilation area was about 3 cm×4 cm. From the 2nd day after depilation, the corresponding drugs were applied to the hair removal area, twice a day, 0.5 mL per animal each time, and subcutaneously injected once a week.
# From the second day after application, observe the daily color change of the skin on the back of the mice to determine the growth state of the hair follicles and visually observe the hair growth in the depilation area, and score the new hair growth in the depilation area once a day. Five mice in each group were reserved for 40 days of visual observation, and the growth of back hair was recorded.
# On the 17th day, five mice in each group were sacrificed by cervical dislocation. The samples were taken from the same part of the back parallel to the spine, fixed with 10% formaldehyde, dehydrated, embedded in paraffin, sectioned, stained with HE, and sealed with neutral gum. Then the histology of hair follicles was observed under light microscope, and morphological staging of hair follicles was performed. According to the international hair cycle scoring method, the hair follicles were scored as follows: 100 points for growth stage VI, 200 points for early regression, 300 points for middle regression, and 400 points for late regression. 50 hair follicles were randomly selected from each mouse, the cycle of the hair follicles in each group was determined, and the average hair cycle score and the percentage of hair follicles in the growth phase VI, early regression, middle regression, and late regression were calculated.
# [2] = system: vitiligo guinea pig model caused by hydroquinone depigmentation; assay: Vitiligo guinea pig model caused by hydroquinone depigmentation: counts of epidermal MC and melanin-granule-containing basal cells; assay type: in vivo; settings: guinea pig skin after hydroquinone decolorization, drug once a day for 30 days, n = 10, x ± s; for Epidermal melanocyte count: average number of MCs in each 100 epidermal basal cells; for Basal cells containing melanin granules count: average number per 100 epidermal basal cells
# Procedure: 10 in each group, Half male and female. Except for the blank control group, the other groups were smeared with 5% hydroquinone in the hair removal area for decolorization, 0.5 mL each time, twice a day, and the animals in the blank control group were smeared with an equal amount of normal saline every day. […] After modeling, the drug was administered in the above manner, once a day for 30 days.
# After the observation, the mice were sacrificed, and the skin tissue on the back about 3 cm×3 cm was cut for histopathological examination.
# The excised mouse skin tissue was fixed in 10% formalin for 1 hour, washed with running water for 3-4 min, and placed into a phosphate buffer solution (pH 7.4) containing 0.1% dihydroxyphenylalanine, and let stand at 37° C. for 1 hour. Then it was replaced with fresh Dopa reagent and left at 37° C. for 12 hours, rinsed with running water, and fixed with Bouin's solution continuously for 24 h. After the specimens were taken out, it was rinsed with running water for 4 hours, dehydrated, cleared in xylene, embedded in paraffin, deparaffinized to water, and stained with hematoxylin-eosin for contrast. Dehydrated and routinely mounted. After Dopa-oxidase staining, brownish-black staining was MC positive.
# The excised mouse skin tissue was fixed in 10% formalin, dehydrated, cleared with xylene, embedded in paraffin, sectioned, deparaffinized to water, washed with distilled water several times, then stained with Lillie reagent, soaked with ferric chloride and potassium ferricyanide mixed solution for 15-20 minutes, then differentiated with 1% acetic acid aqueous solution for several minutes, washed with distilled water several times, then quickly dehydrated with 95% ethanol and absolute ethanol, cleared in xylene, and sealed with neutral gum. If melanin was dark green after Lillie reagent staining, it was positive.
# [3] = system: rabbit ear acne model; assay: Rabbit ear acne model induced by 2% coal tar; assay type: in vivo, New Zealand rabbits; settings: n = 10; for Skin thickness: rabbit ear epidermis; for Hair follicle area / Sebaceous gland diameter: rabbit ear; for Histological grading of acne: number of animals graded − / Histological grading of acne: number of animals graded 1+ / Histological grading of acne: number of animals graded 2+ / Histological grading of acne: number of animals graded 3+: right ear; for Histological grading of acne: number of animals graded −: grade 0: only loose keratinized cells in the infundibulum, without acne; for Histological grading of acne: number of animals graded 1+: grade 1: small amount of dense keratinized material, infundibulum not expanded; for Histological grading of acne: number of animals graded 2+: grade 2: moderately dense keratinized material extending to sebaceous glands, infundibulum expands; for Histological grading of acne: number of animals graded 3+: grade 3: extensive keratinized material, severe expansion of hair follicles
# Text: The inner side of the right ear of the rabbits was taken as the observation area, the left ear of all rabbits was used as the self-negative control, and 95% alcohol was applied. The inner side of the right ear of the model group and the treatment group were smeared with 2% coal tar (Alfa Aesar China Company, 2% coal tar solution made with 95% alcohol), and evenly applied to the opening of the ear canal on the inner side of the rabbit ear with a sterile cotton swab in a range of about 2 cm×2 cm, once a day, 0.5 mL each time. Then the previous application was wiped with warm water. […] 18 hours after the last coating, the samples were sacrificed, fixed in 10% formaldehyde, embedded in paraffin, and stained with HE for histopathological analysis.
# Histological grading standard of the acne model: […], according to histology. Grade 0 means that there are only loose keratinized cells in the infundibulum, without acne forming the “1”; grade 1: the skin on the surface of the rabbit ear is red, or a small amount of dense keratinized material is seen in the infundibulum of the hair follicle, and the infundibulum is not expanded “+”; grade 2: moderately dense keratinized material is seen in the infundibulum of the hair follicle, and it extends to the sebaceous glands, with the proliferation of sebaceous gland ducts, the infundibulum expands by “2+”; grade 3: extensive keratinized material in the hair follicle. Tight keratin embolism in hair follicles causes severe expansion of hair follicles, obvious hyperplasia of sebaceous duct epithelium, skin bulges and scars, and some sebaceous glands degenerate into “3+”.
# Histopathological changes were observed under a microscope, and the thickness of 5 different epidermises on a slice was measured with the Biomias99 image analysis system, and the average value was calculated; the area of two hair follicles with the same position and the most complete structure and the diameter of four sebaceous glands were detected, and the average value of each was calculated, and then the data of the left and right external auditory canals of each group were subtracted to obtain the difference in the thickness of the epidermis, the difference in hair follicle area and the diameter of the sebaceous gland in the left and right ears of each rabbit.
molecule,measurement,setting,value
Alirocumab [Monoclonal antibody group 3],Time from hair growth to the same length as the hair in the non-experimental area,[1],10.13* days
same,Time to grow new hair,[1],6.06* days
same,Time to match the length of hair in the non-experimental area,[1],16.75* days
same,Black skin duration,[1],13.43* days
same,Skin black-turning time,[1],5.35* days
same,Skin grayish-black-turning time,[1],16.65* days
same,Epidermal melanocyte count,[2],43.5 ± 3.6
same,Basal cells containing melanin granules count,[2],39.6 ± 3.7
same,Skin thickness,[3],0.1547 ± 0.0149 mm
same,Hair follicle area,[3],0.1526 ± 0.0723* mm^2
same,Sebaceous gland diameter,[3],0.0435 ± 0.0285 mm
same,Histological grading of acne: number of animals graded −,[3],9
same,Histological grading of acne: number of animals graded 1+,[3],1
same,Histological grading of acne: number of animals graded 2+,[3],0
same,Histological grading of acne: number of animals graded 3+,[3],0
ALN-PCS [RNA interference group 3],Time from hair growth to the same length as the hair in the non-experimental area,[1],14.26* days
same,Time to grow new hair,[1],6.96* days
same,Time to match the length of hair in the non-experimental area,[1],21.38* days
same,Black skin duration,[1],12.16* days
same,Skin black-turning time,[1],6.08* days
same,Skin grayish-black-turning time,[1],18.52* days
same,Epidermal melanocyte count,[2],33.8 ± 2.7
same,Basal cells containing melanin granules count,[2],35.3 ± 3.1
same,Skin thickness,[3],0.1987 ± 0.0185 mm
same,Hair follicle area,[3],0.1921 ± 0.0933* mm^2
same,Sebaceous gland diameter,[3],0.0615 ± 0.0476 mm
same,Histological grading of acne: number of animals graded −,[3],5
same,Histological grading of acne: number of animals graded 1+,[3],4
same,Histological grading of acne: number of animals graded 2+,[3],1
same,Histological grading of acne: number of animals graded 3+,[3],0
Inclisran [RNA interference group 2],Time from hair growth to the same length as the hair in the non-experimental area,[1],14.12* days
same,Time to grow new hair,[1],6.92* days
same,Time to match the length of hair in the non-experimental area,[1],20.16* days
same,Black skin duration,[1],11.87* days
same,Skin black-turning time,[1],5.66* days
same,Skin grayish-black-turning time,[1],18.23* days
same,Epidermal melanocyte count,[2],32.6 ± 2.8
same,Basal cells containing melanin granules count,[2],36.1 ± 3.2
same,Skin thickness,[3],0.1856 ± 0.0179 mm
same,Hair follicle area,[3],0.1836 ± 0.0856* mm^2
same,Sebaceous gland diameter,[3],0.0561 ± 0.0423 mm
same,Histological grading of acne: number of animals graded −,[3],6
same,Histological grading of acne: number of animals graded 1+,[3],3
same,Histological grading of acne: number of animals graded 2+,[3],1
same,Histological grading of acne: number of animals graded 3+,[3],0
"COc1ccc(CCC(=O)N(c2nccc3ccccc23)[C@@H]2CCCNC2)cc1 [Compound group 1, R-IMPP]",Time from hair growth to the same length as the hair in the non-experimental area,[1],11.14* days
same,Time to grow new hair,[1],6.92* days
same,Time to match the length of hair in the non-experimental area,[1],18.06* days
same,Black skin duration,[1],14.29* days
same,Skin black-turning time,[1],5.96* days
same,Skin grayish-black-turning time,[1],20.25* days
same,Epidermal melanocyte count,[2],33.6 ± 2.9
same,Basal cells containing melanin granules count,[2],36.5 ± 3.8
same,Skin thickness,[3],0.2433 ± 0.0196 mm
same,Hair follicle area,[3],0.2726 ± 0.0842* mm^2
same,Sebaceous gland diameter,[3],0.0512 ± 0.0327 mm
same,Histological grading of acne: number of animals graded −,[3],6
same,Histological grading of acne: number of animals graded 1+,[3],3
same,Histological grading of acne: number of animals graded 2+,[3],1
same,Histological grading of acne: number of animals graded 3+,[3],0
"Cc1cc(C(=O)C2=C(O)C(=O)N(CCCN3CCOCC3)C2c2ccncc2)ccc1OCc1ccccc1 (stereo not drawn) [Compound group 3, SBC-115076]",Time from hair growth to the same length as the hair in the non-experimental area,[1],11.52* days
same,Time to grow new hair,[1],6.95* days
same,Time to match the length of hair in the non-experimental area,[1],19.35* days
same,Black skin duration,[1],11.65* days
same,Skin black-turning time,[1],5.63* days
same,Skin grayish-black-turning time,[1],18.12* days
same,Epidermal melanocyte count,[2],36.1 ± 2.8
same,Basal cells containing melanin granules count,[2],36.9 ± 3.6
same,Skin thickness,[3],0.2245 ± 0.0185 mm
same,Hair follicle area,[3],0.2836 ± 0.0851* mm^2
same,Sebaceous gland diameter,[3],0.0542 ± 0.0346 mm
same,Histological grading of acne: number of animals graded −,[3],5
same,Histological grading of acne: number of animals graded 1+,[3],3
same,Histological grading of acne: number of animals graded 2+,[3],2
same,Histological grading of acne: number of animals graded 3+,[3],0
"O=C(c1ccc(-n2nnc3cccnc32)cc1)N(c1ncccc1Cl)[C@@H]1CCCNC1 [Compound group 2, PF 06446846]",Time from hair growth to the same length as the hair in the non-experimental area,[1],10.46* days
same,Time to grow new hair,[1],6.33* days
same,Time to match the length of hair in the non-experimental area,[1],17.69* days
same,Black skin duration,[1],10.86* days
same,Skin black-turning time,[1],5.45* days
same,Skin grayish-black-turning time,[1],17.32* days
same,Epidermal melanocyte count,[2],39.3 ± 3.2
same,Basal cells containing melanin granules count,[2],38.8 ± 3.9
same,Skin thickness,[3],0.1968 ± 0.0121 mm
same,Hair follicle area,[3],0.2353 ± 0.0812* mm^2
same,Sebaceous gland diameter,[3],0.0467 ± 0.0313 mm
same,Histological grading of acne: number of animals graded −,[3],7
same,Histological grading of acne: number of animals graded 1+,[3],2
same,Histological grading of acne: number of animals graded 2+,[3],1
same,Histological grading of acne: number of animals graded 3+,[3],0
"CC(=O)Nc1ccc(C(=O)N2CCN(c3ccc(C)cc3)CC2c2ccccc2)cc1 (stereo not drawn) [Compound group 4, SBC-110736]",Time from hair growth to the same length as the hair in the non-experimental area,[1],11.87* days
same,Time to grow new hair,[1],6.98* days
same,Time to match the length of hair in the non-experimental area,[1],18.46* days
same,Black skin duration,[1],12.32* days
same,Skin black-turning time,[1],5.78* days
same,Skin grayish-black-turning time,[1],18.46* days
same,Epidermal melanocyte count,[2],34.6 ± 2.6
same,Basal cells containing melanin granules count,[2],36.8 ± 3.7
same,Skin thickness,[3],0.2276 ± 0.0193 mm
same,Hair follicle area,[3],0.2853 ± 0.0879* mm^2
same,Sebaceous gland diameter,[3],0.0561 ± 0.0362 mm
same,Histological grading of acne: number of animals graded −,[3],5
same,Histological grading of acne: number of animals graded 1+,[3],2
same,Histological grading of acne: number of animals graded 2+,[3],3
same,Histological grading of acne: number of animals graded 3+,[3],0

# Source: patent publication US20230346773A1, “USE OF PCSK9 INHIBITOR IN PREPARATION OF PRODUCT FOR TREATING MULTIPLE DISEASES” (priority 2020, published 2023)
